Test results taken from ChEMBL document CHEMBL1125660, “Synthesis and aromatase inhibitory activity of novel 1-(4-aminophenyl)-3-azabicyclo[3.1.0]hexane- and -[3.1.1]heptane-2,4- diones” (J Med Chem, 1991).

Key:
[1] = target: T1, Steroid 17-alpha-hydroxylase/17,20 lyase (Homo sapiens, UniProt P05093); type: functional
T1 sequence (P05093 whole entry): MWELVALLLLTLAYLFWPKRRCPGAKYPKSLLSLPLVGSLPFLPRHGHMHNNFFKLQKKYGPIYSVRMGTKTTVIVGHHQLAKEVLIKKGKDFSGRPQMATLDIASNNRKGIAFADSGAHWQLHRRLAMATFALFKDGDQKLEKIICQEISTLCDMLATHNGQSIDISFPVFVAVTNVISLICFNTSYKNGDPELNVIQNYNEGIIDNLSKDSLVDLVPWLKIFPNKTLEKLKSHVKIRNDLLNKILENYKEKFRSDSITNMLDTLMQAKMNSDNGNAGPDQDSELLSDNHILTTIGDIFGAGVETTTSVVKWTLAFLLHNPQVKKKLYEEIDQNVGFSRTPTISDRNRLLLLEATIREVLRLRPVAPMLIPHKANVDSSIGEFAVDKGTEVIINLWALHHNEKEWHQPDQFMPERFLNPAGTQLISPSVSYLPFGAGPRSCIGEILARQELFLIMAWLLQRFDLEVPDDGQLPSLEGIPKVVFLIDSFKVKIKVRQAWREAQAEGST

[2] = target: T2, Cytochrome P450 11B2, mitochondrial (Rattus norvegicus, UniProt P30099)
T2 sequence (P30099 whole entry): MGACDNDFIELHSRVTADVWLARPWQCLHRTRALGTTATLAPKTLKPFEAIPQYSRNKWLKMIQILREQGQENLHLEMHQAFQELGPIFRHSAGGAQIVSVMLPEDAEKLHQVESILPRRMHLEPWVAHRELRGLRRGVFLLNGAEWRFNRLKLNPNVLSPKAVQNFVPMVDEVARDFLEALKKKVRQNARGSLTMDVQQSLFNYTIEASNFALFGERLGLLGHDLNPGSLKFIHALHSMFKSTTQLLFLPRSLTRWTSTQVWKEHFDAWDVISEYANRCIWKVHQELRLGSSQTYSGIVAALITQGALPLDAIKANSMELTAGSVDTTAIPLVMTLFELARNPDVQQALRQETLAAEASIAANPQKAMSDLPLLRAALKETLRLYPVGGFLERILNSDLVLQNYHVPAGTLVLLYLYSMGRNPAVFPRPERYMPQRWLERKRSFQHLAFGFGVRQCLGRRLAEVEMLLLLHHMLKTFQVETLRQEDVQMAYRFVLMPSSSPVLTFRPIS

Aromatase [3] = target: T3, Aromatase (Rattus norvegicus, UniProt P22443); conditions: in vivo, po
T3 sequence (P22443 whole entry): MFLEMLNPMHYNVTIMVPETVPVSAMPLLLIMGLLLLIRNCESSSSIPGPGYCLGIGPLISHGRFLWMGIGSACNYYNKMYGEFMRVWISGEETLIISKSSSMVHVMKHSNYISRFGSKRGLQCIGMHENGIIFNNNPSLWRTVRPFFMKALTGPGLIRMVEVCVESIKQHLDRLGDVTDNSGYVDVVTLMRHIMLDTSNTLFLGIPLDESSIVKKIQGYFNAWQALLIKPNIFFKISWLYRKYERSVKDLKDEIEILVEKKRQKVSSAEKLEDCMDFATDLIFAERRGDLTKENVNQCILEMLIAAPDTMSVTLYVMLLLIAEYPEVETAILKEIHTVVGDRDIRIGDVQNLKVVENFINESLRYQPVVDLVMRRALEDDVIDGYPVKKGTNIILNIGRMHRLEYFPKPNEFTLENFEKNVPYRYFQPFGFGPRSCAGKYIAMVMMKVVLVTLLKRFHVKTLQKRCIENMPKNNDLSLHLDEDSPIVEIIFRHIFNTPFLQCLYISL

Rattus norvegicus [4] = species: Rattus norvegicus; type: functional; conditions: dose 31.3 mg/kg; route oral
Rattus norvegicus [5] = species: Rattus norvegicus; type: functional; conditions: dose 62.5 mg/kg; route oral
Rattus norvegicus [6] = species: Rattus norvegicus; type: functional; conditions: dose 125 mg/kg; route oral
Rattus norvegicus [7] = species: Rattus norvegicus; type: functional; conditions: dose 15.6 mg/kg; route oral
Rattus norvegicus [8] = species: Rattus norvegicus; type: functional; conditions: dose 125 mg/kg; route oral; remark: listed apart in the source
Rattus norvegicus [9] = species: Rattus norvegicus; type: functional; conditions: dose 15.6 mg/kg; route oral; remark: listed apart in the source
Rattus norvegicus [10] = species: Rattus norvegicus; type: functional; conditions: dose 62.5 mg/kg; route oral; remark: listed apart in the source
Rattus norvegicus [11] = species: Rattus norvegicus; type: functional; conditions: dose 125 mg/kg; route oral; remark: listed apart in the source
Rattus norvegicus [12] = species: Rattus norvegicus; type: functional; conditions: dose 25.6 mg/kg; route oral
Rattus norvegicus [13] = species: Rattus norvegicus; type: functional; conditions: dose 31.3 mg/kg; route oral; remark: listed apart in the source
Rattus norvegicus [14] = species: Rattus norvegicus; type: functional; conditions: dose 62.5 mg/kg; route oral; remark: listed apart in the source
Rattus norvegicus [15] = species: Rattus norvegicus; type: functional; conditions: dose 31.3 mg/kg
Rattus norvegicus [16] = species: Rattus norvegicus; type: functional; conditions: dose 62.5 mg/kg; route oral; remark: listed apart in the source
Rattus norvegicus [17] = species: Rattus norvegicus; type: functional; conditions: dose 12.5 mg/kg
Rattus norvegicus [18] = species: Rattus norvegicus; type: functional; conditions: dose 15.6 mg/kg
Rattus norvegicus [19] = species: Rattus norvegicus; type: functional; conditions: dose 31.3 mg/kg; remark: listed apart in the source
Rattus norvegicus [20] = species: Rattus norvegicus; type: functional; conditions: dose 62.5 mg/kg
Rattus norvegicus [21] = species: Rattus norvegicus; type: functional
Rattus norvegicus [22] = species: Rattus norvegicus; type: functional; conditions: dose 15.6 mg/kg; remark: listed apart in the source
Rattus norvegicus [23] = species: Rattus norvegicus; type: functional; conditions: dose 31.3 mg/kg; route oral; remark: listed apart in the source
[24] = target: T2, Cytochrome P450 11B2, mitochondrial; remark: listed apart in the source
[25] = target: T1, Steroid 17-alpha-hydroxylase/17,20 lyase; type: functional; remark: listed apart in the source
[26] = target: T2, Cytochrome P450 11B2, mitochondrial; remark: listed apart in the source
Aromatase [27] = target: T3, Aromatase; conditions: in vivo, po; remark: listed apart in the source
Rattus norvegicus [28] = species: Rattus norvegicus; type: functional; conditions: dose 100 mg/kg; route oral
Rattus norvegicus [29] = species: Rattus norvegicus; type: functional; conditions: dose 30 mg/kg; route oral
Rattus norvegicus [30] = species: Rattus norvegicus; type: functional; conditions: dose 100 mg/kg; route oral; remark: listed apart in the source
Rattus norvegicus [31] = species: Rattus norvegicus; type: functional; conditions: dose 30 mg/kg; route oral; remark: listed apart in the source
Rattus norvegicus [32] = species: Rattus norvegicus; type: functional; conditions: dose 100 mg/kg; route oral; remark: listed apart in the source
Rattus norvegicus [33] = species: Rattus norvegicus; type: functional; conditions: dose 30 mg/kg; route oral; remark: listed apart in the source
Rattus norvegicus [34] = species: Rattus norvegicus; type: functional; conditions: dose 30 mg/kg
Rattus norvegicus [35] = species: Rattus norvegicus; type: functional; remark: listed apart in the source
Rattus norvegicus [36] = species: Rattus norvegicus; type: functional; conditions: dose 30 mg/kg; route oral; remark: listed apart in the source
Rattus norvegicus [37] = species: Rattus norvegicus; type: functional; conditions: dose 100 mg/kg
[38] = target: T2, Cytochrome P450 11B2, mitochondrial; remark: listed apart in the source

SMILES: Nc1ccc(C23CC(C2)C(=O)N(C2CCCCC2)C3=O)cc1
- IC50 [1]: 140 µM
- IC50 [2]: 140 µM
- ED (Aromatase [3]): 0.3 mg/kg

SMILES: Nc1ccc(C23CC2C(=O)N(CC2CCCCC2)C3=O)cc1 (stereo unspecified)
- IC50 [1]: > 330 µM
- Response (Rattus norvegicus [4]): 55%
- Response (Rattus norvegicus [5]): 4.1%
- Response (Rattus norvegicus [6]): 5%
- Response (Rattus norvegicus [7]): 78.3%
- Response (Rattus norvegicus [8]): 0%
- Response (Rattus norvegicus [9]): 17.4%
- Response (Rattus norvegicus [10]): 4.2%
- Response (Rattus norvegicus [11]): 82.6%
- Response (Rattus norvegicus [12]): 4.3%
- Response (Rattus norvegicus [13]): 15%
- Response (Rattus norvegicus [14]): 91.6%
- No. of tumors (Rattus norvegicus [15]): 20
- No. of tumors (Rattus norvegicus [16]): 24
- New tumors (Rattus norvegicus [17]): 0
- New tumors (Rattus norvegicus [18]): 3
- New tumors (Rattus norvegicus [19]): 3
- New tumors (Rattus norvegicus [20]): 0
- No. of tumors (Rattus norvegicus [21]): 23
- No. of tumors (Rattus norvegicus [22]): 23
- Response (Rattus norvegicus [23]): 30%
- IC50 [24]: > 330 µM
- ED (Aromatase [3]): 1.5 mg/kg

SMILES: Nc1ccc(C23CC2C(=O)N(CC2CCCCC2)C3=O)cc1 (stereo in doubt; (+)-1h)
- IC50 [25]: > 34 µM
- IC50 [26]: > 34 µM
- ED (Aromatase [27]): 1 mg/kg

SMILES: CCC1(c2ccc(N)cc2)CCC(=O)NC1=O (stereo unspecified) [AMINOGLUTETHIMIDE]
- IC50 [25]: 60 µM
- Response (Rattus norvegicus [28]): 66.6%
- Response (Rattus norvegicus [29]): 91.6%
- Response (Rattus norvegicus [30]): 22.2%
- Response (Rattus norvegicus [31]): 4.1%
- Response (Rattus norvegicus [32]): 11.2%
- Response (Rattus norvegicus [33]): 4.25%
- New tumors (Rattus norvegicus [34]): 4
- No. of tumors (Rattus norvegicus [35]): 18
- No. of tumors (Rattus norvegicus [36]): 24
- New tumors (Rattus norvegicus [37]): 5
- IC50 [38]: 110 µM
